The compounds below were run against T1, human TLR8 (Homo sapiens, UniProt Q9NR97) (assay: TLR8 inhibition reporter assay (HEK-Blue SEAP)). Details: HEK-Blue cells overexpressing human TLR8, R848 15.9 μM, 22 hour incubation.
T1 construct: host or cells: HEK-Blue cells
T1 sequence (Q9NR97 27-1041): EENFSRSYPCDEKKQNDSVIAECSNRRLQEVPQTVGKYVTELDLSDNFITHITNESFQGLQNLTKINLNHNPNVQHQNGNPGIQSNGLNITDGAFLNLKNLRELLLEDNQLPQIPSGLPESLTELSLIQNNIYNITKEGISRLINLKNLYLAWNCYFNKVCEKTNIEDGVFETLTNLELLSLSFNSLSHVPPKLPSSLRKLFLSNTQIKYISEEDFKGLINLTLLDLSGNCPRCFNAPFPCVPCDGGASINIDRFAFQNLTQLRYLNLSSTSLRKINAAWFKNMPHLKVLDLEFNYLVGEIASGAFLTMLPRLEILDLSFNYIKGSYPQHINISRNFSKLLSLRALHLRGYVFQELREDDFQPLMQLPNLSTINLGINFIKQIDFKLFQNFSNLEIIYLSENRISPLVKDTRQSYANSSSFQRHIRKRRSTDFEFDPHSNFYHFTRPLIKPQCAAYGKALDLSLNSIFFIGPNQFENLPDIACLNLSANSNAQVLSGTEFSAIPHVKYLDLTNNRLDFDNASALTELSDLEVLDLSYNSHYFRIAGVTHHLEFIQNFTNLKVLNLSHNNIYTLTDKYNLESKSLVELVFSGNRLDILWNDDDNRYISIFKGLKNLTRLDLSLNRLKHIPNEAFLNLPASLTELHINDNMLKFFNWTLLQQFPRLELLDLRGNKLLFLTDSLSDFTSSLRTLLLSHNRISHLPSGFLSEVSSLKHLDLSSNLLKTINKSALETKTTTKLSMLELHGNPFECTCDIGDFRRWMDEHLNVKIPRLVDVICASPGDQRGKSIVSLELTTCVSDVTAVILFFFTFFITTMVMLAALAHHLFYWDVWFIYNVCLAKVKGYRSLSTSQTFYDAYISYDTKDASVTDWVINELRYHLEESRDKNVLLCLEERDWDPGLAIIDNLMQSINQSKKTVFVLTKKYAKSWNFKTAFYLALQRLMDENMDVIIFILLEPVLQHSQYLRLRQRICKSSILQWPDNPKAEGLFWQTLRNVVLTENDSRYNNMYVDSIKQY
Assay type: cell-based
Procedure, shortened: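 HEK-Blue cells overexpressing human TLR7, TLR8 or TLR9 carry a SEAP reporter driven by NF-κB/AP-1 sites. Compounds (0.05 nM–50 μM) were preincubated 30 min at room temperature, then cells were stimulated with gardiquimod 7.5 μM (TLR7), R848 15.9 μM (TLR8) or ODN2006 5 nM (TLR9) for 22 h at 37 °C.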

Row | SMILES | IC50
1 | COc1cc(-c2cc3[nH]c(=O)n([C@H]4CC[C@@H](NCC5CCCCC5)CC4)c3cc2C)cn2ncnc12 [Example 66, 1-((1s,4s)-4-((cyclohexylmethyl)amino)cyclohexyl)-5-(8-methoxy-[1,2,4]triazolo[1,5-a]pyridin-6-yl)-6-methyl-1,3-dihydro-2H-benzo[d]imidazol-2-one] | 0.66 nM
2 | CCC(CC)N1CCC[C@@H](n2c(=O)[nH]c3cc(-c4cc(OC)c5ncnn5c4)c(C)cc32)C1 [Example 67, (R)-5-(8-methoxy-[1,2,4]triazolo[1,5-a]pyridin-6-yl)-6-methyl-1-(1-(pentan-3-yl)piperidin-3-yl)-1,3-dihydro-2H-benzo[d]imidazol-2-one] | 52 nM
3 | COc1cc(-c2cc3[nH]c(=O)n([C@@H]4CCCN(CCC(F)(F)F)C4)c3cc2C)cn2ncnc12 [Example 68, (R)-5-(8-methoxy-[1,2,4]triazolo[1,5-a]pyridin-6-yl)-6-methyl-1-(1-(3,3,3-trifluoropropyl)piperidin-3-yl)-1,3-dihydro-2H-benzo[d]imidazol-2-one] | 121 nM
4 | COc1cc(-c2cc3[nH]c(=O)n([C@@H]4CCCN(C5CCC5)C4)c3cc2C)cn2ncnc12 [Example 69, (R)-1-(1-cyclobutylpiperidin-3-yl)-5-(8-methoxy-[1,2,4]triazolo[1,5-a]pyridin-6-yl)-6-methyl-1,3-dihydro-2H-benzo[d]imidazol-2-one] | 110 nM
5 | COc1cc(-c2cc3[nH]c(=O)n([C@@H]4CCCN(C5CCOCC5)C4)c3cc2C)cn2ncnc12 [Example 70, (R)-5-(8-methoxy-[1,2,4]triazolo[1,5-a]pyridin-6-yl)-6-methyl-1-(1-(tetrahydro-2H-pyran-4-yl)piperidin-3-yl)-1,3-dihydro-2H-benzo[d]imidazol-2-one] | 117 nM
6 | COc1cc(-c2cc3[nH]c(=O)n([C@@H]4CCCN(CC(C)(C)C)C4)c3cc2C)cn2ncnc12 [Example 71, (R)-5-(8-methoxy-[1,2,4]triazolo[1,5-a]pyridin-6-yl)-6-methyl-1-(1-neopentylpiperidin-3-yl)-1,3-dihydro-2H-benzo[d]imidazol-2-one] | 147 nM
7 | COc1cc(-c2cc3[nH]c(=O)n([C@@H]4CCCN(C5COC5)C4)c3cc2C)cn2ncnc12 [Example 72, (R)-5-(8-methoxy-[1,2,4]triazolo[1,5-a]pyridin-6-yl)-6-methyl-1-(1-(oxetan-3-yl)piperidin-3-yl)-1,3-dihydro-2H-benzo[d]imidazol-2-one] | 249 nM
8 | CCC(CC)CN1CCC[C@@H](n2c(=O)[nH]c3cc(-c4cc(OC)c5ncnn5c4)c(C)cc32)C1 [Example 73, (R)-1-(1-(2-ethylbutyl)piperidin-3-yl)-5-(8-methoxy-[1,2,4]triazolo[1,5-a]pyridin-6-yl)-6-methyl-1,3-dihydro-2H-benzo[d]imidazol-2-one] | 73.6 nM
9 | COc1cc(-c2ccc3c(c2)[nH]c(=O)n3C2CCN(C)CC2)cn2ncnc12 [Example 74, 5-(8-methoxy-[1,2,4]triazolo[1,5-a]pyridin-6-yl)-1-(1-methylpiperidin-4-yl)-1,3-dihydro-2H-benzo[d]imidazol-2-one] | > 3130 nM
10 | CCC(CC)CN1CCC(n2c(=O)[nH]c3cc(-c4cc(OC)c5ncnn5c4)ccc32)CC1 [Example 75, 1-(1-(2-ethylbutyl)piperidin-4-yl)-5-(8-methoxy-[1,2,4]triazolo[1,5-a]pyridin-6-yl)-1,3-dihydro-2H-benzo[d]imidazol-2-one] | 1490 nM
11 | CCCN1CCC(n2c(=O)[nH]c3cc(-c4cc(OC)c5ncnn5c4)ccc32)CC1 [Example 76, 5-(8-methoxy-[1,2,4]triazolo[1,5-a]pyridin-6-yl)-1-(1-propylpiperidin-4-yl)-1,3-dihydro-2H-benzo[d]imidazol-2-one] | 251 nM
12 | COc1cc(-c2ccc3c(c2)[nH]c(=O)n3C2CCN(C(C)C)CC2)cn2ncnc12 [Example 77, 1-(1-isopropylpiperidin-4-yl)-5-(8-methoxy-[1,2,4]triazolo[1,5-a]pyridin-6-yl)-1,3-dihydro-2H-benzo[d]imidazol-2-one] | > 3130 nM
13 | COc1cc(-c2ccc3c(c2)[nH]c(=O)n3C2CCN(CC3CCOCC3)CC2)cn2ncnc12 [Example 78, 5-(8-methoxy-[1,2,4]triazolo[1,5-a]pyridin-6-yl)-1-(1-((tetrahydro-2H-pyran-4-yl)methyl)piperidin-4-yl)-1,3-dihydro-2H-benzo[d]imidazol-2-one] | 1380 nM
14 | COc1cc(-c2ccc3c(c2)[nH]c(=O)n3C2CCN(CC3CC3)CC2)cn2ncnc12 [Example 79, 1-(1-(cyclopropylmethyl)piperidin-4-yl)-5-(8-methoxy-[1,2,4]triazolo[1,5-a]pyridin-6-yl)-1,3-dihydro-2H-benzo[d]imidazol-2-one] | 1550 nM
15 | COc1cc(-c2ccc3c(c2)[nH]c(=O)n3C2CCN(C3COC3)CC2)cn2ncnc12 [Example 80, 5-(8-methoxy-[1,2,4]triazolo[1,5-a]pyridin-6-yl)-1-(1-(oxetan-3-yl)piperidin-4-yl)-1,3-dihydro-2H-benzo[d]imidazol-2-one] | > 3130 nM
16 | COc1cc(-c2ccc3c(c2)[nH]c(=O)n3C2CCN(C3CCOC3)CC2)cn2ncnc12 (stereo not drawn) [Example 81, 5-(8-methoxy-[1,2,4]triazolo[1,5-a]pyridin-6-yl)-1-(1-(tetrahydrofuran-3-yl)piperidin-4-yl)-1,3-dihydro-2H-benzo[d]imidazol-2-one] | > 3130 nM
17 | COc1cc(-c2ccc3c(c2)[nH]c(=O)n3C2CCN(CC3CCOC3)CC2)cn2ncnc12 (stereo not drawn) [Example 82, 5-(8-methoxy-[1,2,4]triazolo[1,5-a]pyridin-6-yl)-1-(1-((tetrahydrofuran-3-yl)methyl)piperidin-4-yl)-1,3-dihydro-2H-benzo[d]imidazol-2-one] | 2600 nM
18 | COc1cc(-c2ccc3c(c2)[nH]c(=O)n3C2CCN(C3CCC3)CC2)cn2ncnc12 [Example 83, 1-(1-cyclobutylpiperidin-4-yl)-5-(8-methoxy-[1,2,4]triazolo[1,5-a]pyridin-6-yl)-1,3-dihydro-2H-benzo[d]imidazol-2-one] | 1260 nM
19 | COc1cc(-c2cc3[nH]c(=O)n([C@H]4CC[C@@H](N(C)C(C)C)CC4)c3cc2C)cn2ncnc12 [Example 84, 1-((1s,4s)-4-(isopropyl(methyl)amino)cyclohexyl)-5-(8-methoxy-[1,2,4]triazolo[1,5-a]pyridin-6-yl)-6-methyl-1,3-dihydro-2H-benzo[d]imidazol-2-one] | 9.69 nM
20 | COc1cc(-c2cc3[nH]c(=O)n([C@H]4CC[C@@H](N(C)C5CCOCC5)CC4)c3cc2C)cn2ncnc12 [Example 85, 5-(8-methoxy-[1,2,4]triazolo[1,5-a]pyridin-6-yl)-6-methyl-1-((1s,4s)-4-(methyl(tetrahydro-2H-pyran-4-yl)amino)cyclohexyl)-1,3-dihydro-2H-benzo[d]imidazol-2-one] | 7.14 nM
21 | COc1cc(-c2cc3[nH]c(=O)n(C4CCN(CC(=O)N(C)C)CC4)c3cc2C)cn2ncnc12 [Example 86, 2-(4-(5-(8-methoxy-[1,2,4]triazolo[1,5-a]pyridin-6-yl)-6-methyl-2-oxo-2,3-dihydro-1H-benzo[d]imidazol-1-yl)piperidin-1-yl)-N,N-dimethylacetamide] | 359 nM
22 | CNC(=O)CN1CCC(n2c(=O)[nH]c3cc(-c4cc(OC)c5ncnn5c4)c(C)cc32)CC1 [Example 87, 2-(4-(5-(8-methoxy-[1,2,4]triazolo[1,5-a]pyridin-6-yl)-6-methyl-2-oxo-2,3-dihydro-1H-benzo[d]imidazol-1-yl)piperidin-1-yl)-N-methylacetamide] | 377 nM
23 | CNC(=O)CN1CCC(n2c(=O)[nH]c3cc(-c4cc(C)c5ncnn5c4)c(C)cc32)CC1 [Example 88, N-methyl-2-(4-(6-methyl-5-(8-methyl-[1,2,4]triazolo[1,5-a]pyridin-6-yl)-2-oxo-2,3-dihydro-1H-benzo[d]imidazol-1-yl)piperidin-1-yl)acetamide] | 115 nM
24 | Cc1cc2c(cc1-c1cc(C)c3ncnn3c1)[nH]c(=O)n2C1CCN(CC(=O)N(C)C)CC1 [Example 89, N,N-dimethyl-2-(4-(6-methyl-5-(8-methyl-[1,2,4]triazolo[1,5-a]pyridin-6-yl)-2-oxo-2,3-dihydro-1H-benzo[d]imidazol-1-yl)piperidin-1-yl)acetamide] | 105 nM

From patent US12187723B2 (BRISTOL-MYERS SQUIBB COMPANY, priority 2019, dated 2025)
